{"source": "paper PMC12798769", "about": "“GArNet: A Genetic Algorithm-Based Protein Redesign Approach to Optimize Mutation Combinations Informed by Network Theory” (Journal of Chemical Information and Modeling, 2025)", "key": {"CnTDH [1]": {"molecular_target": "T1, CnTDH (Cupriavidus necator, UniProt Q0K312, V11I/R67K/G69K/G263D/Q265E/D282Q, form not given)", "T1 construct": "gene H16_B0820; recombinant in E. coli BL21(DE3), His-tag (HisTrap; pET15b NdeI/BamHI for the designed variants), size-exclusion purified", "assay": "NADH formation at […] nm, Michaelis-Menten fit", "assay_type": "biochemical", "settings": "0.1 M Gly-KOH pH 10.0; 2.5 mM NAD+; 0.0-40 mM L-threonine"}, "CnTDH [2]": {"molecular_target": "T2, CnTDH (Cupriavidus necator, UniProt Q0K312, N14C/R31N/A62E/A160N/H177Y/A291K/A310K, form not given)", "T2 construct": "gene H16_B0820; recombinant in E. coli BL21(DE3), His-tag (HisTrap; pET15b NdeI/BamHI for the designed variants), size-exclusion purified", "assay": "NADH formation at […] nm, Michaelis-Menten fit", "assay_type": "biochemical", "settings": "0.1 M Gly-KOH pH 10.0; 2.5 mM NAD+; 0.0-40 mM L-threonine"}}, "data": [{"smiles": "C[C@@H](O)[C@H](N)C(=O)O", "note": "[L-threonine]", "values": [{"measurement": "Km", "setting": "CnTDH [1]", "value": "11.6 ± 1.4", "unit": "mM"}, {"measurement": "Km", "setting": "CnTDH [2]", "value": "17.4 ± 1.9", "unit": "mM"}]}]}
